This note sets out measurements from ChEMBL document CHEMBL1255423, “Dinitroaniline activity in Toxoplasma gondii expressing wild-type or mutant alpha-tubulin” (Antimicrob Agents Chemother, 2010).

Common to all, as to type: functional, organism-based
Assay [1] concerns Toxoplasma gondii. Put plainly: Antimicrobial activity against Toxoplasma gondii RH containing alpha1-tubulin S6I mutation infected in HFF cells by plaque assay.
Assay [2] relates to Toxoplasma gondii. The assay is described as follows: Antimicrobial activity against Toxoplasma gondii RH infected in HFF cells by plaque assay.
For assay [3], the system named is Toxoplasma gondii. Put plainly: Antimicrobial activity against Toxoplasma gondii RH containing alpha1-tubulin R243C mutation infected in HFF cells by plaque assay.
Assay [4] concerns Toxoplasma gondii. Put plainly: Antimicrobial activity against Toxoplasma gondii RH containing alpha1-tubulin I235T mutation infected in HFF cells by plaque assay.
The test system of assay [5] is Toxoplasma gondii. Put plainly: Antimicrobial activity against Toxoplasma gondii RH containing alpha1-tubulin F24H mutation infected in HFF cells by plaque assay.
For assay [6], the system named is Toxoplasma gondii. The assay is described as follows: Antimicrobial activity against Toxoplasma gondii RH containing alpha1-tubulin I235L mutation infected in HFF cells by plaque assay.
Assay [7] concerns Toxoplasma gondii. Put plainly: Antimicrobial activity against Toxoplasma gondii RH containing alpha1-tubulin V4L mutation infected in HFF cells by plaque assay.
In assay [8] the test system is Toxoplasma gondii. Put plainly: Antimicrobial activity against Toxoplasma gondii RH containing alpha1-tubulin L136F mutation infected in HFF cells by plaque assay.
Assay [9] concerns Toxoplasma gondii. The assay is described as follows: Antimicrobial activity against Toxoplasma gondii RH containing alpha1-tubulin T239I mutation infected in HFF cells by plaque assay.
Assay [10] deals with Toxoplasma gondii. The assay is described as follows: Antimicrobial activity against Toxoplasma gondii RH containing alpha1-tubulin H28Q mutation infected in HFF cells by plaque assay.
In assay [11] the test system is Toxoplasma gondii. The assay is described as follows: Antimicrobial activity against Toxoplasma gondii RH containing alpha1-tubulin I235V mutation infected in HFF cells by plaque assay.
The test system of assay [12] is Toxoplasma gondii. The assay is described as follows: Antimicrobial activity against Toxoplasma gondii RH containing alpha1-tubulin R243S mutation infected in HFF cells by plaque assay.
Assay [13] concerns Toxoplasma gondii. Put plainly: Induction of parasite microtubule disruption Toxoplasma gondii RH infected in HFF cells by antitubulin antibody staining.
Assay [14] has as its system Toxoplasma gondii. Put plainly: Induction of parasite shape change Toxoplasma gondii RH infected in HFF cells at 0.25 uM by phase contrast microscopy.
Assay [15] has as its system Cryptosporidium parvum. The assay is described as follows: Antimicrobial activity against Cryptosporidium parvum by short-term in vitro culture assay.

Calls of active or inactive are those of the source. The calls are words filed in the database; no cut-off is given here.

With `CCN(CC)c1c([N+](=O)[O-])cc(C(F)(F)F)c(N)c1[N+](=O)[O-]` [DINITRAMINE], the IC50 came to 0.42 µM in assay [1]; 0.045 µM in assay [2]; 0.33 µM in [3]; 0.32 µM in assay [4]; 0.37 µM in assay [5]; 0.32 µM in [6]. Moreover, the IC50 in assay [7] was 3.4 µM; in assay [8] it was 12.5 µM; in assay [9], 26.6 µM; in [10], 0.51 µM; in assay [11], 0.089 µM; in assay [12], 18.4 µM. Also, the result in [13] and in [14] was Active.

Turning to `CCCN(CCC)c1c([N+](=O)[O-])cc(S(N)(=O)=O)cc1[N+](=O)[O-]` [ORYZALIN], the 50% inhibitory concentration (IC50) in assay [1] turned out to be 1.5 µM; in [2], 0.25 µM; in assay [15] it was 0.7 µM; in assay [3], 2.2 µM; in assay [4], 5.5 µM; in assay [5], 1.26 µM. The IC50 stood at 1.6 µM in assay [6]; 14.7 µM in assay [7]; 27.7 µM in assay [8]; 25.3 µM in [9]; 1.4 µM in assay [10]; 2.3 µM in assay [11]. Moreover, the IC50 in [12] was 16 µM.

Regarding `CCCCN(CC)c1c([N+](=O)[O-])cc(C(F)(F)F)cc1[N+](=O)[O-]` [BENFLURALIN], the IC50 in [1] was determined as 7.4 µM; in [2], 1.5 µM; in [3] it was 12 µM; in assay [4], 9.3 µM; in assay [5], 15.7 µM; in assay [6] it was 4.6 µM. Further, the IC50 in assay [7] is 18.8 µM; in assay [8] it was 27.7 µM; in [9], 22.9 µM; in [10] it was 15.2 µM; in assay [11], 3.7 µM; in assay [12], 21.7 µM.

As for `CCCN(CCC)c1c([N+](=O)[O-])cc(S(C)(=O)=O)cc1[N+](=O)[O-]` [NITRALIN], the 50% inhibitory concentration (IC50) stood at 2.1 µM in assay [1]; 0.5 µM in assay [2]; 4.5 µM in [15]; 4.3 µM in assay [3]; 4.9 µM in [4]; 3.7 µM in [5]. Further, the IC50 worked out at 2.1 µM in assay [6]; 19.2 µM in assay [7]; 31.3 µM in assay [8]; 30.3 µM in assay [9]; 1.8 µM in assay [10]; 1.6 µM in assay [11]. In assay [12], half-maximal inhibition (IC50) required 23.9 µM.

As to `CCC(CC)Nc1c([N+](=O)[O-])cc(C)c(C)c1[N+](=O)[O-]` [PENDIMETHALIN], the IC50 in [1] was determined as 0.75 µM; in [2] it was 0.26 µM; in assay [15], 0.19 µM; in assay [3], 1.1 µM; in assay [4] it was 0.71 µM; in assay [5] it was 3.2 µM. For the same compound, the IC50 in [6] came to 1 µM; in assay [7], 3.2 µM; in assay [8] it was 13.2 µM; in assay [9], 12.2 µM; in assay [10] it was 2.5 µM; in [11], 0.34 µM. Moreover, half-maximal inhibition in assay [12] (IC50) was put at 9.7 µM.

Turning to `CCCN(CCCl)c1c([N+](=O)[O-])cc(C(F)(F)F)cc1[N+](=O)[O-]` [FLUCHLORALIN], the 50% inhibitory concentration (IC50) in [1] is 1.9 µM; in [2], 0.33 µM; in assay [15], 1.81 µM; in [3], 2.2 µM; in [4], 2.1 µM; in assay [5] it was 3.2 µM. Also, the IC50 in assay [6] was determined as 1 µM; in assay [7] it was 8 µM; in assay [8] it was 22.2 µM; in assay [9] it was 20.5 µM; in assay [10] it was 1.6 µM; in assay [11] it was 0.77 µM. The same compound registered an IC50 in assay [12] of 17.7 µM.

On to `CCCN(CCC)c1c([N+](=O)[O-])cc(S(=O)(=O)Nc2ccccc2)cc1[N+](=O)[O-]`, for which the IC50 stood at 12.4 µM in assay [1]; 6.7 µM in assay [2]; 17 µM in assay [3]; 16.9 µM in [4]; 17.2 µM in [5]; 7.7 µM in assay [6]. In addition, the half-maximal inhibitory concentration (IC50) came out at 26.2 µM in [7]; 9.7 µM in [8]; 17.1 µM in assay [9]; 12.4 µM in assay [10]; 4.7 µM in assay [11]; 13.3 µM in [12].

`CCCN(CC1CC1)c1c([N+](=O)[O-])cc(C(F)(F)F)cc1[N+](=O)[O-]` [PROFLURALIN]: the IC50 in assay [1] is 2.6 µM; in [2] it was 0.61 µM; in [15], 1.9 µM; in assay [3], 3.2 µM; in assay [4], 3.9 µM; in assay [5] it was 4.3 µM. Moreover, the half-maximal inhibitory concentration (IC50) is 1.5 µM in assay [6]; 8.2 µM in assay [7]; 21.2 µM in [8]; 22.1 µM in [9]; 2.8 µM in assay [10]; 1.5 µM in [11]. The compound also registered an IC50 in assay [12] of 20.4 µM.

On to `COP(=S)(NC(C)C)Oc1ccc(C)cc1[N+](=O)[O-]` (centres undefined) [AMIPROPHOS METHYL], for which the IC50 turned out to be 3.3 µM in assay [1]; 1 µM in [2]; 5.9 µM in assay [3]; 7.1 µM in assay [4]; 10 µM in [5]; 3.9 µM in assay [6]. Besides, the IC50 in assay [7] worked out at 2.1 µM; in assay [8] it was 28.5 µM; in assay [9], 28.5 µM; in assay [10] it was 5.1 µM; in assay [11], 1.5 µM; in assay [12], 19.1 µM.

`C=C(C)CN(CC)c1c([N+](=O)[O-])cc(C(F)(F)F)cc1[N+](=O)[O-]` [ETHALFLURALIN]: the concentration for half-maximal inhibition (IC50) was found to be 2.5 µM in assay [1]; 0.26 µM in assay [2]; 1.6 µM in assay [3]; 1.7 µM in assay [4]; 2.1 µM in assay [5]; 1.4 µM in [6]. In addition, the IC50 in assay [7] turned out to be 13.5 µM; in assay [8], 24 µM; in assay [9] it was 28.7 µM; in assay [10] it was 4.2 µM; in assay [11], 0.65 µM; in assay [12], 19.5 µM.

Turning to `CCCN(CCC)c1c([N+](=O)[O-])cc(C(C)C)cc1[N+](=O)[O-]` [ISOPROPALIN], the IC50 in assay [1] is 2.2 µM; in assay [2] it was 0.88 µM; in [3], 4 µM; in assay [4] it was 4.3 µM; in [5], 3.5 µM; in [6] it was 2.2 µM. In addition, the IC50 turned out to be 7 µM in assay [7]; 15 µM in assay [8]; 15 µM in assay [9]; 3.4 µM in assay [10]; 2.2 µM in assay [11]; 13.5 µM in assay [12].

For the compound `CCC(C)Nc1c([N+](=O)[O-])cc(C(C)(C)C)cc1[N+](=O)[O-]` (centres undefined) [BUTRALIN], the IC50 in [1] was found to be 4.5 µM; in assay [2], 1.8 µM; in [3], 12.8 µM; in assay [4], 7.4 µM; in [5] it was 24.2 µM; in [6] it was 9.1 µM. Besides, the IC50 in assay [7] came out at 32.1 µM; in assay [8], 32 µM; in assay [9], 28.7 µM; in assay [10], 10.2 µM; in assay [11], 3.8 µM; in assay [12] it was 25.1 µM.

On to `CCCN(CCC)c1c([N+](=O)[O-])cc(C(F)(F)F)cc1[N+](=O)[O-]` [TRIFLURALIN], for which the half-maximal inhibitory concentration (IC50) came to 2.8 µM in assay [1]; 0.52 µM in [2]; 1.94 µM in assay [15]; 4.1 µM in [3]; 5.1 µM in assay [4]; 4.2 µM in [5]. The half-maximal inhibitory concentration (IC50) in [6] stood at 1.9 µM; in [7], 13.8 µM; in assay [8], 27 µM; in [9], 23.4 µM; in [10] it was 5.3 µM; in assay [11], 1.8 µM. For the same compound, 23.3 µM corresponded to half-maximal inhibition in [12] (IC50).

By IC50 is commonly meant the concentration at which inhibition is half-maximal.
